Experimental data from article PMC7961587, “Novel Cell Permeable Polymers of N-Substituted L-2,3-Diaminopropionic Acid (DAPEGs) and Cellular Consequences of Their Interactions with Nucleic Acids” (International Journal of Molecular Sciences, 2021).
Square brackets hold non-standard residues; d marks the D form. Peptide text beside a SMILES is read from it. * marks the point of attachment. 5FAM = O=C1OC2(c3ccc(O)cc3Oc3cc(O)ccc32)c2ccc(C(=O)*)cc21; Acetyl(2-(HOCH2CH2OCH2CH2O)) = O=C(COCCOCCO)*; Dap = NC[C@H](N)C(=O)O; AEEA = NCCOCCOCC(=O)O

Columns and labels:
[1] = system: MDA-MB-231 or HB-2 cell lines; test: Cytotoxicity assay: MTT; assay type: cell-based, human; settings: for Cytotoxicity at the concentration used in the cell experiments, in words: 10 µM, MTT, Figure S2, HB-2 and MDA-MB-231; for Cytotoxicity (percentage of dead cells): MTT assay, MDA-MB-231 or HB-2 cell lines, greatest concentration of 50 µg/mL, 24 h
Description: Cell viability against cell-penetrating compounds was detected by the MTT assay. The HB2 and MDA-MB-231 cells were seeded into 96-well plates at a density of 5 × 10^3/well and 7 × 10^3/well, respectively, and incubated in complete medium (100 µL/well) for 48 h. […] Cells incubated in media without any test compounds were used as control. After incubation, medium containing test compounds was removed, and 225 µL fresh medium with 25 µL 3-(4,5-dimethylthiazol-2-yl)-2,5-diphenyltetrazolium bromide (MTT) was added (0.5 mg/mL per well). After incubation at 37 °C for 4 h, supernatants were removed, and the formazan crystals were dissolved overnight with dimethyl sulfoxide (DMSO; 150 µL/well). Results were analyzed using a microplate reader (SPECTROstar Nano, BMG LABTECH, Ortenberg, Germany) at 570 nm and 690 nm.

HB2 and MDA-MB-231 cells = test: Cell permeability and localization by fluorescence microscopy; assay type: cell-based, human; settings: for Cell membrane crossing and localization, in words: 10 µM, fluorescence microscopy, HB2 or MDA-MB-231 cells; for Cell Permeablility (Target): cellular localization: fluorescence microscope Olympus IX51, 10 µM fluorescently labeled compound, DAPI nucleus staining
Excerpt: Preliminary cell permeability experiments facilitated the identification of three groups of compounds. […] The first group includes compound 4 and its derivatives (4a and 4b) and the family of compound 5 (5a and 5b). Compounds 4 and 5 are similar in structure and are composed of six residues of diaminopropionic acid (Dap) decorated with side chains of different lengths, terminating with the same highly positive guanidine moiety. […] Both compounds display unique cellular localization. […] We believe that such effective nuclear localisation of the first group of tested compounds is due to the effective mimicking of the nuclear localisation sequence (NLS). Such sequence consists of several positively charged lysines or arginines present in the protein structure. Additionally, side chain length of the polymer molecules seems to be a crucial factor that is optimal for compounds belonging to first group of polymers.
HB2 and MDA-MB-231 cells were seeded on 24-well plates at a density 1.5 × 10^4/well and 4 × 10^4/well, respectively, and incubated in 0.5 mL complete medium for 48 h. Subsequently, cells were washed with phosphate-buffered saline (PBS), and fresh medium with a fluorescently labeled peptide was added to each well at a concentration of 10 µM. For nucleus staining a DAPI solution (ThermoFisher Scientific, Waltham, MA, USA, […] R37606) in PBS was employed in conditions recommended by the supplier. After the incubation (2 h or 24 h), cells were washed thoroughly with PBS, and then a phenol red-free culture medium (FluoroBrite, DMEM) was added. Subsequently, the cells were examined using an Olympus IX51 fluorescence microscope (Olympus, Tokyo, Japan) using appropriate filters: blue for DAPI, green for FITC, and red TAMRA. Next, the images were merged and colocalization of the dyes’ emission were analyzed.

[2] = molecular target: dsDNA (76 bp fragment) containing the sequence of beta-actin; test: Microscale thermophoresis (MST), dsDNA binding; design: species or system Homo sapiens; settings: Monolith NT.115, 0.437 µM 5/6-FAM-labeled compound, dsDNA 6.1 nM–200 µM, EDBS buffer pH 8, 32 °C 1 h, scanned at 25 °C, at least two independent experiments, read-out: Binding constant, double-stranded DNA (MST)
Description: (§1) Figure 7 Microscale thermophoresis (MST) analysis of dsDNA binding by 5/6-FAM-labeled compounds. The MST analysis. FAM-labeled compounds 1a (A), 4a (B), 5a (C), and ssDNA binding by 5/6-FAM-labeled compounds 1a (E), 4a (F), 5a (G) was performed using the Monolith NT.115 instrument (NanoTemper). Binding was measured between increasing concentrations (6.1 nM–200 µM) of dsDNA (76 bp fragment) and 0.437 µM of the indicated compounds labeled with 5/6-FAM. Control experiments were performed with DNA and 5/6-FAM dye (D,H).
(§2) Figure 9 Microscale thermophoresis (MST) analysis of dsDNA binding by 5/6-FAM-labeled compounds. The MST analysis of dsDNA binding by 5/6-FAM-labeled compounds 13a (A) and 14a (B), and ssDNA binding by 5/6-FAM-labeled compounds 13a (D) and 14a (E) was performed using the Monolith NT.115 instrument (NanoTemper). Binding was measured between increasing concentration (6.1 nM–200 µM) of dsDNA (76 bp fragment) and 0.437 µM of the indicated compounds labeled with 5/6-FAM. A control experiment was performed with DNA and 5/6-FAM dye (C,F).
(§3) Microscale thermophoresis was performed using the Monolith NT.115 instrument (NanoTemper Technologies GmbH, Munich, Germany). Binding between dsDNA (76 bp) or ssDNA (76 nt) fragments and test compounds labeled with 5/6-FAM was measured. […] All data were analyzed using MO Affinity Analysis software (NanoTemper, Munich, Germany).

ssDNA (76 nt) fragment = test: Microscale thermophoresis (MST), ssDNA binding; design: species or system Homo sapiens; settings: Monolith NT.115, 0.437 µM 5/6-FAM-labeled compound, EDBS buffer pH 8, 32 °C 1 h, scanned at 25 °C, at least two independent experiments, read-out: Binding constant, single-stranded DNA (MST)
Description: as §1, §2, §3

[3] = system: 76 bp dsDNA fragment containing the sequence of β-actin; test: Surface plasmon resonance (SPR), dsDNA binding; design: species or system Homo sapiens; settings: 50 and 100 µM compound over immobilized 76 bp dsDNA, HBS-EP buffer
Description: Standard surface plasmon resonance (SPR) analyses using a Biacore T200 (GE Healthcare, Warsaw, Poland) were performed essentially as described in the manufacturers’ manual. DNA binding by all tested compounds was studied using a 5′-biotinylated 76 nt ssDNA or 76 bp dsDNA fragment containing the sequence of β-actin (Homo sapiens), immobilized on a streptavidin matrix-coated sensor chip SA (GE Healthcare, Warsaw, Poland). All oligonucleotides were commercially synthesized (oligo.pl, Poland; Figures S3 and S4). The dsDNA was immobilized on the sensor surface to yield a final value of ~50 RU for dsDNA or ~100 RU. Experiments were performed at 25 °C, and the running buffer was HBS-EP (150 mM NaCl, 10 mM HEPES (pH = 7.4), 3 mM EDTA, and 0.05% Surfactant P20). In binding experiments, the buffer flow rate was set to 15 µL/min, and in kinetic experiments, the buffer flow rate was 30 µL/min. The data were analyzed using Biacore T200 evaluation software (GE Healthcare, Warsaw, Poland). The results are presented as sensorgrams obtained after subtracting the background response signal from a reference flow cell and from a control experiment with buffer injection.
Figure 2S. Cytotoxicity of compounds 1a–9a as assessed by the MTT assay. Two different cell lines were used: A) HB‐2 and B) MDA‐MB‐231.
Figure 3S. Surface plasmon resonance SPR analysis of double‐stranded DNA (dsDNA) binding by various peptidomimetics. The SPR analysis of dsDNA binding was performed using: A) 50 μM and B) 100 μM of the indicated compounds, flowed over the SA sensor chip surface with immobilized 76 bp biotinylated DNA fragment containing the sequence of beta‐ actin (Homo sapiens). Injections were performed in HBS‐EP buffer. HBS‐EP was also used as […]
Figure 4S. SPR analysis of DNA binding by compound 5a. […] (C) Kinetic constants calculated from at least three experiments using Biacore T200 Evaluation Software […]

Row | Compound | Cytotoxicity at the concentration used in the cell experiments, in words [1] | Cell membrane crossing and localization, in words (HB2 and MDA-MB-231 cells) | Cell Permeablility (Target): cellular localization (HB2 and MDA-MB-231 cells) | Cytotoxicity (percentage of dead cells) [1] [%] | DNA binding class set arbitrarily from the SPR experiment (Figure S3) [3] | further results
1 | 5′,6-FAM -O2Oc-(D-arg)6-O2Oc-NH2 [2a] | slightly cytotoxic | partially visible in the cytoplasm in the form of granules | cytoplasm |  |  | 
2 | 5′,6-FAM -O2Oc-(Har)6-O2Oc-NH2 [3a] | slightly cytotoxic | partially visible in the cytoplasm in the form of granules | cytoplasm |  |  | 
3 | 5′,6-FAM [compound 10, reference compound] |  |  |  |  |  | Kd [2]: 639 ± 703 µM; Kd (ssDNA (76 nt) fragment): 399 ± 497 µM
4 | 5′,6-FAM-O2Oc-(Arg)6-O2Oc-NH2 [1a] | slightly cytotoxic | partially visible in the cytoplasm in the form of granules | cytoplasm |  |  | Kd [2]: 7.4 ± 0.1 µM; Kd (ssDNA (76 nt) fragment): 0.02 ± 0.04 µM
5 | NCCOCCOCC(=O)NC[C@H](NC(=O)COCCOCCNC(=O)c1ccc2c(c1)C(=O)OC21c2ccc(O)cc2Oc2cc(O)ccc21)C(=O)N[C@@H](CNC(=O)COCCOCCN)C(=O)N[C@@H](CNC(=O)COCCOCCN)C(=O)N[C@@H](CNC(=O)COCCOCCN)C(=O)N[C@@H](CNC(=O)COCCOCCN)C(=O)N[C@@H](CNC(=O)COCCOCCN)C(=O)NCCOCCOCC(N)=O [8a, 5′,6-FAM-O2Oc-[Dap(O2)]6-O2Oc-NH2] ({5FAM-AEEA}-[Dap](AEEA)[Dap](AEEA)[Dap](AEEA)[Dap](AEEA)[Dap](AEEA)[Dap](AEEA)[AEEA]-NH2) |  | did not cross the cell membrane |  |  |  | 
6 | NC(=O)COCCOCCNC(=O)[C@H](CNC(=O)COCCOCCO)NC(=O)[C@H](CNC(=O)COCCOCCO)NC(=O)[C@H](CNC(=O)COCCOCCO)NC(=O)[C@H](CNC(=O)COCCOCCO)NC(=O)[C@H](CNC(=O)COCCOCCO)NC(=O)[C@H](CNC(=O)COCCOCCO)NC(=O)COCCOCCNC(=O)c1ccc2c(c1)C(=O)OC21c2ccc(O)cc2Oc2cc(O)ccc21 [9a, 5′,6-FAM-O2Oc-[Dap(HO2)]6-O2Oc-NH2] ({5FAM-AEEA}-[Dap](Acetyl(2-(HOCH2CH2OCH2CH2O)))[Dap](Acetyl(2-(HOCH2CH2OCH2CH2O)))[Dap](Acetyl(2-(HOCH2CH2OCH2CH2O)))[Dap](Acetyl(2-(HOCH2CH2OCH2CH2O)))[Dap](Acetyl(2-(HOCH2CH2OCH2CH2O)))[Dap](Acetyl(2-(HOCH2CH2OCH2CH2O)))[AEEA]-NH2) |  | did not cross the cell membrane |  |  |  | 
7 | N=C(N)NCCC[C@H](NC(=O)COCCOCCN)C(=O)N[C@@H](CCCNC(=N)N)C(=O)N[C@@H](CCCNC(=N)N)C(=O)N[C@@H](CCCNC(=N)N)C(=O)N[C@@H](CCCNC(=N)N)C(=O)N[C@@H](CCCNC(=N)N)C(=O)NCCOCCOCC(N)=O [compound 1, O2Oc(Arg)6-O2Oc-NH2] |  |  |  | 10 | Moderate | 
8 | N=C(N)NCCC[C@@H](NC(=O)COCCOCCN)C(=O)N[C@H](CCCNC(=N)N)C(=O)N[C@H](CCCNC(=N)N)C(=O)N[C@H](CCCNC(=N)N)C(=O)N[C@H](CCCNC(=N)N)C(=O)N[C@H](CCCNC(=N)N)C(=O)NCCOCCOCC(N)=O [compound 2, O2Oc(D-arg)6-O2Oc-NH2] |  |  |  | 15 | Moderate | 
9 | N=C(N)NCCCC[C@H](NC(=O)COCCOCCN)C(=O)N[C@@H](CCCCNC(=N)N)C(=O)N[C@@H](CCCCNC(=N)N)C(=O)N[C@@H](CCCCNC(=N)N)C(=O)N[C@@H](CCCCNC(=N)N)C(=O)N[C@@H](CCCCNC(=N)N)C(=O)NCCOCCOCC(N)=O [compound 3, O2Oc-(Har)6-O2Oc-NH2] |  |  |  | 10 | Weak | 
10 | N=C(N)NCCOCCOCC(=O)NC[C@H](NC(=O)COCCOCCNC(=O)c1ccc2c(c1)C(=O)OC21c2ccc(O)cc2Oc2cc(O)ccc21)C(=O)N[C@@H](CNC(=O)COCCOCCNC(=N)N)C(=O)N[C@@H](CNC(=O)COCCOCCNC(=N)N)C(=O)N[C@@H](CNC(=O)COCCOCCNC(=N)N)C(=O)N[C@@H](CNC(=O)COCCOCCNC(=N)N)C(=O)N[C@@H](CNC(=O)COCCOCCNC(=N)N)C(=O)N[C@@H](CNC(=O)COCCOCCNC(=N)N)C(=O)N[C@@H](CNC(=O)COCCOCCNC(=N)N)C(=O)NCCOCCOCC(N)=O [compound 14a, 5′,6-FAM-O2Oc-[Dap(GO2)]8-O2Oc-NH2] |  | efficiently penetrate the membrane and localized in the nucleus | nucleus |  |  | 
